From ChEMBL document CHEMBL1862790, “Optimisation of fenarimol series for the treatment of Chagas disease”

Assays:
Trypanosoma cruzi [1] = experiment: microbe, parasite or virus in culture; format: functional, organism-based, Tulahuen LacZ, Clone C4; conditions: Trypanosoma cruzi, Tulahuen LacZ, Clone C4
[2] = DNDI: Cytotoxicity against L-6 rat myoblasts from skeletal muscle cells; conditions: L6 rat skeletal muscle myoblast cells
Trypanosoma cruzi [3] = experiment: microbe, parasite or virus in culture; format: functional, Tulahuen LacZ, Clone C4; conditions: Trypanosoma cruzi, Tulahuen LacZ, Clone C4

Compound | IC50 (Trypanosoma cruzi [1]) | IC50 [2] | IC90 (Trypanosoma cruzi [3]) | IC50 ([2]; IC50)
CC(C)Oc1ccc(C(O)(c2cccnc2)c2ccccc2F)cc1 (centres undefined) | 0.0033 µM | 74 µM | 0.24 µM | –
Cc1ccncc1C(O)(c1ccc(Cl)cc1)c1ccc(C(F)(F)F)cc1 (centres undefined) | 0.042 µM | – | 0.14 µM | 56.5 µM
CCCCOC(Cc1ccc(Cl)nc1)c1ccc(Cl)cc1Cl (centres undefined) | > 10 µM | – | > 10 µM | 91.4 µM
Clc1ccc(C(NCCc2c[nH]c3ccccc23)c2cccnc2)cc1 (centres undefined) | 0.014 µM | – | 0.19 µM | 48.7 µM
Clc1ccc(C(NCc2ccccc2)c2cccnc2)cc1 (centres undefined) | 0.096 µM | – | 0.21 µM | > 100 µM
COc1ccccc1N1CCN(C(c2cccnc2)c2ccc(Cl)cc2F)CC1 (centres undefined) | 0.045 µM | – | 0.1 µM | 59.9 µM
CC(C)CC(=O)NC(c1ccc(C(F)(F)F)cc1)c1cnccn1 (centres undefined) | 8.91 µM | – | > 10 µM | > 100 µM
Cc1ccncc1C(O)(c1ccc(Cl)cc1)c1cncnc1 (centres undefined) | 0.253 µM | – | 0.57 µM | > 100 µM
OC1CCN(C(c2ccc(C(F)(F)F)cc2)c2cnccn2)CC1 (centres undefined) | 6.52 µM | – | > 10 µM | > 100 µM
OC(c1cccnc1)(c1cccs1)c1ccc(Cl)cc1F (centres undefined) | 0.005 µM | – | 0.105 µM | > 100 µM
CS(=O)(=O)Nc1ccc(C(O)(c2ccc(Cl)cc2)c2cccnc2)cc1 (centres undefined) | 0.03 µM | – | 0.24 µM | > 100 µM
N#Cc1ccccc1C(O)(c1ccc(Cl)cc1)c1cccnc1 (centres undefined) | 0.062 µM | – | 0.15 µM | > 100 µM
Clc1ccc(C(=NN2CCCCC2)c2cccnc2)cc1 | 0.381 µM | – | 0.63 µM | 56.8 µM
NC(=O)c1ccc(C(O)(c2ccc(C(F)(F)F)cc2)c2cccnc2)cc1 (centres undefined) | 0.12 µM | – | 0.39 µM | > 100 µM
Cc1ccc(C(O)(c2ccc(Cl)cc2)c2cncnc2)cn1 (centres undefined) | 0.435 µM | – | > 1 µM | > 100 µM
CCCCC(O)(c1ccc(OC(C)C)cc1)c1cccnc1 (centres undefined) | 0.017 µM | – | 0.036 µM | 55.9 µM
OC(c1ccc(Cl)cc1)(c1ccc(C(F)(F)F)cc1)c1nnc[nH]1 (centres undefined) | 7.42 µM | – | > 10 µM | > 100 µM
CC(C)CC(Nc1cccnc1)c1ccc(Cl)cc1 (centres undefined) | 0.64 µM | – | > 1 µM | 56.2 µM
CO/N=C(\c1ccc(Cl)cc1)c1cccnc1 | > 1 µM | – | > 1 µM | > 100 µM

Compound | IC50 (Trypanosoma cruzi [1]) | IC50 [2] | IC90 (Trypanosoma cruzi [3]) | IC50 ([2]; IC50)
OC(c1ccc(Cl)cc1)(c1ccc(C(F)(F)F)cc1)c1cc(-c2ccccc2)on1 (centres undefined) | > 1 µM | – | > 1 µM | 18.7 µM
OC(c1ccc(Cl)cc1)(c1ccc(C(F)(F)F)cc1)c1cnc2ccccc2c1 (centres undefined) | > 1 µM | – | > 1 µM | 62.6 µM
OC(c1ccc(C(F)(F)F)cc1)(c1cccnc1)c1ccccc1F (centres undefined) | 0.022 µM | > 100 µM | 0.21 µM | –
Cc1cnc(C(O)(c2ccc(Cl)cc2)c2ccc(C(F)(F)F)cc2)cn1 (centres undefined) | > 1 µM | – | > 1 µM | 61.6 µM
NC(=O)c1ccccc1C(O)(c1ccc(Cl)cc1)c1cccnc1 (centres undefined) | 0.033 µM | – | 0.14 µM | > 100 µM
OC(c1ccc(Cl)cc1)(c1ccc(C(F)(F)F)cc1)c1ccc2ncccc2c1 (centres undefined) | 2.84 µM | – | 7.49 µM | 56.3 µM
CC(C)Oc1ccc(C(c2cccnc2)N2CCN(C(=O)C(C)C)CC2)cc1 (centres undefined) | 0.035 µM | – | 0.2 µM | > 100 µM
CC(C)Oc1ccc(C(O)(c2cccnc2)c2cnc(Cl)nc2)cc1 (centres undefined) | 0.293 µM | – | 0.67 µM | > 100 µM
FC(F)(F)c1ccc(C(NCC2CCCCC2)c2cnccn2)cc1 (centres undefined) | 0.39 µM | – | 0.74 µM | 59.2 µM
CC1(C)COC(c2cccc(C(O)(c3ccc(Cl)cc3)c3cncnc3)c2)=N1 (centres undefined) | 0.5 µM | – | 0.89 µM | > 100 µM
CN(CC1CCCCC1)C(c1ccc(C(F)(F)F)cc1)c1cnccn1 (centres undefined) | 0.48 µM | – | 0.82 µM | 55.6 µM
CC(C)c1ccc(C(O)(c2ccc(C(F)(F)F)cc2)c2cncnc2)cc1 (centres undefined) | 0.0045 µM | – | 0.02 µM | 56.5 µM
OC(c1ccc(Cl)cc1)(c1cccnc1)c1cccc(F)c1F (centres undefined) | 0.107 µM | > 100 µM | 0.256 µM | –
COc1ccc(CNC(c2ccc(Cl)cc2)c2cccnc2)cc1 (centres undefined) | 0.078 µM | – | 0.899 µM | > 100 µM
Cc1cnc(C(O)(c2ccc(Cl)cc2)c2cncnc2)cn1 (centres undefined) | 2.11 µM | – | 5.91 µM | > 100 µM
CON=C(c1ccc(C(F)(F)F)cc1)c1cnccn1 | > 1 µM | – | > 1 µM | > 100 µM
N#CC(c1ccc(Cl)cc1)N1CCN(c2ccccc2)CC1 (centres undefined) | > 1 µM | – | > 1 µM | > 100 µM
N#Cc1ccc(C(O)(c2ccc(Cl)cc2)c2cccnc2)c(F)c1 (centres undefined) | 0.026 µM | – | 0.11 µM | > 100 µM
Clc1ccc(C(NCC2CCCCC2)c2cccnc2)cc1 (centres undefined) | 0.032 µM | – | 0.08 µM | 59.7 µM
